Test results as given in PubChem BioAssay AID248 (DTP/NCI, 2004).
Toxic doses and inconclusive results are not listed.

Tested on: L1210 leukemia ip in BDF1 mice, survival T/C
Experiment: NCI In Vivo Anticancer Drug Screen. Data for tumor model L1210 Leukemia (intraperitoneal) in B6D2F1 (BDF1) mice
Conditions: endpoint: mean survival time, higher = longer survival
In short: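 Transplanted-tumor mice were given test agent; controls received vehicle only. Survival readings from the two groups were divided (treated over control).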

[1] = dose: 100.0 mg/kg/injection, schedule: Q01DX001 (ip), vehicle: carboxymethylcellulose (CMC)
[2] = dose: 200.0 mg/kg/injection, schedule: Q01DX001 (ip), vehicle: carboxymethylcellulose (CMC)
[3] = dose: 400.0 mg/kg/injection, schedule: Q01DX001 (ip), vehicle: carboxymethylcellulose (CMC)
[4] = dose: 100.0 mg/kg/injection, schedule: Q01DX009 (ip), vehicle: Klucel (hydroxypropylcellulose) (HPC)
[5] = dose: 200.0 mg/kg/injection, schedule: Q01DX009 (ip), vehicle: Klucel (hydroxypropylcellulose) (HPC)
[6] = dose: 400.0 mg/kg/injection, schedule: Q01DX009 (ip), vehicle: Klucel (hydroxypropylcellulose) (HPC)
[7] = dose: 100.0 mg/kg/injection, schedule: Q04DX003 (ip), vehicle: saline with Tween-80
[8] = dose: 200.0 mg/kg/injection, schedule: Q04DX003 (ip), vehicle: saline with Tween-80
[9] = dose: 400.0 mg/kg/injection, schedule: Q04DX003 (ip), vehicle: saline with Tween-80
[10] = dose: 100.0 mg/kg/injection, schedule: Q04DX002 (ip), vehicle: Klucel (hydroxypropylcellulose) (HPC)
[11] = dose: 200.0 mg/kg/injection, schedule: Q04DX002 (ip), vehicle: Klucel (hydroxypropylcellulose) (HPC)
[12] = dose: 75.0 mg/kg/injection, schedule: Q01DX001 (ip), vehicle: saline
[13] = dose: 150.0 mg/kg/injection, schedule: Q01DX001 (ip), vehicle: saline
[14] = dose: 100.0 mg/kg/injection, schedule: Q01DX001 (ip), vehicle: Klucel (hydroxypropylcellulose) (HPC)
[15] = dose: 200.0 mg/kg/injection, schedule: Q01DX001 (ip), vehicle: Klucel (hydroxypropylcellulose) (HPC)
[16] = dose: 12.5 mg/kg/injection, schedule: Q01DX009 (ip), vehicle: saline with Tween-80
[17] = dose: 25.0 mg/kg/injection, schedule: Q01DX009 (ip), vehicle: saline with Tween-80
[18] = dose: 100.0 mg/kg/injection, schedule: Q01DX001 (ip), vehicle: saline

CCNC1C2CCC(C2)C1c1ccccc1 (stereo not given)
T/C (dose: 3.12 mg/kg/injection, schedule: Q01DX009 (ip), vehicle: saline): 94 % of control
T/C (dose: 6.25 mg/kg/injection, schedule: Q01DX009 (ip), vehicle: saline): 94 % of control
T/C (dose: 12.5 mg/kg/injection, schedule: Q01DX009 (ip), vehicle: saline): 89 % of control
T/C (dose: 25.0 mg/kg/injection, schedule: Q01DX009 (ip), vehicle: saline): 93 % of control
T/C (dose: 25.0 mg/kg/injection, schedule: Q04DX003 (ip), vehicle: saline): 89 % of control
T/C (dose: 50.0 mg/kg/injection, schedule: Q04DX003 (ip), vehicle: saline): 94 % of control

O=C(O)C1(Nc2ccc(-c3ccc(Br)cc3)cc2)CCCC1
T/C (dose: 50.0 mg/kg/injection, schedule: Q01DX001 (ip), vehicle: carboxymethylcellulose (CMC)): 90 % of control
T/C [1]: 90 % of control
T/C [2]: 90 % of control
T/C [3]: 90 % of control

COc1ccc(COC2C(O)C(CO)OC2n2ccc(N)nc2=O)cc1 (stereo not given)
T/C (dose: 12.5 mg/kg/injection, schedule: Q01DX005 (ip), vehicle: saline): 103 % of control
T/C (dose: 25.0 mg/kg/injection, schedule: Q01DX005 (ip), vehicle: saline): 100 % of control
T/C (dose: 50.0 mg/kg/injection, schedule: Q01DX005 (ip), vehicle: saline): 94 % of control
T/C (dose: 100.0 mg/kg/injection, schedule: Q01DX005 (ip), vehicle: saline): 107 % of control

Cc1cccc(N2CCN(P(=S)(c3ccccc3)N3CCN(c4cccc(C)c4)CC3)CC2)c1
T/C [1]: 89 % of control
T/C [2]: 95 % of control
T/C [3]: 86 % of control

NC(=S)N/N=C(/Cc1ccccc1)CC(O)(C(F)(F)F)C(F)(F)F
T/C (dose: 50.0 mg/kg/injection, schedule: Q01DX009 (ip), vehicle: gum acacia): 92 % of control
T/C (dose: 100.0 mg/kg/injection, schedule: Q01DX009 (ip), vehicle: gum acacia): 91 % of control
T/C (dose: 100.0 mg/kg/injection, schedule: Q04DX003 (ip), vehicle: gum acacia): 94 % of control
T/C (dose: 200.0 mg/kg/injection, schedule: Q04DX003 (ip), vehicle: gum acacia): 105 % of control

N#Cc1ccnc2ccccc12
T/C [1]: 97 % of control
T/C [2]: 97 % of control
T/C [3]: 98 % of control

CC1(C)COC(C)(C)C(=O)O1
T/C (dose: 100.0 mg/kg/injection, schedule: Q04DX003 (ip), vehicle: Klucel (hydroxypropylcellulose) (HPC)): 106 % of control
T/C (dose: 200.0 mg/kg/injection, schedule: Q04DX003 (ip), vehicle: Klucel (hydroxypropylcellulose) (HPC)): 97 % of control

O=C1CCOc2ccc(Cl)cc21
T/C [4]: 95 % of control
T/C [5]: 101 % of control
T/C [6]: 106 % of control

CC/C(=C(\CC)c1ccc(OCC(=O)N2CC2)cc1)c1ccc(OCC(=O)N2CC2)cc1
T/C (dose: 2.5 mg/kg/injection, schedule: Q04DX002 (ip), vehicle: saline): 101 % of control
T/C (dose: 5.0 mg/kg/injection, schedule: Q04DX002 (ip), vehicle: saline): 101 % of control
T/C (dose: 10.0 mg/kg/injection, schedule: Q04DX002 (ip), vehicle: saline): 105 % of control

c1ccc(P2(c3ccccc3)(c3ccccc3)C3C4C5C6C4C2C6C53)cc1 (stereo not given)
T/C [7]: 104 % of control
T/C [8]: 109 % of control
T/C [9]: 90 % of control

O=C(NC(=S)Nc1nc(-c2ccccc2)cs1)c1ccccc1
T/C (dose: 100.0 mg/kg/injection, schedule: Q01DX001 (ip), vehicle: gum acacia): 95 % of control
T/C (dose: 200.0 mg/kg/injection, schedule: Q01DX001 (ip), vehicle: gum acacia): 103 % of control
T/C (dose: 400.0 mg/kg/injection, schedule: Q01DX001 (ip), vehicle: gum acacia): 103 % of control

O=C(O)c1cc(Cl)c(Br)c(Cl)c1
T/C [10]: 100 % of control
T/C [11]: 107 % of control

O=C1C(=O)c2ccccc2C(O)=C1C(CCc1ccccc1)C1=C(O)c2ccccc2C(=O)C1=O
T/C (dose: 75.0 mg/kg/injection, schedule: Q01DX001 (ip), vehicle: carboxymethylcellulose (CMC)): 106 % of control
T/C [12]: 96 % of control
T/C [13]: 94 % of control

CCOC(=O)C(Cc1ccc2ccccc2n1)C(=O)OCC
T/C [14]: 100 % of control
T/C [15]: 106 % of control
T/C (dose: 400.0 mg/kg/injection, schedule: Q01DX001 (ip), vehicle: Klucel (hydroxypropylcellulose) (HPC)): 100 % of control

COc1ccc(CC(=O)NC(N)=O)cc1
T/C [7]: 101 % of control
T/C [8]: 97 % of control
T/C [9]: 90 % of control

CCCCCCCCCCCCNC
T/C [16]: 92 % of control
T/C [17]: 93 % of control
T/C (dose: 25.0 mg/kg/injection, schedule: Q04DX003 (ip), vehicle: saline with Tween-80): 103 % of control
T/C (dose: 50.0 mg/kg/injection, schedule: Q01DX009 (ip), vehicle: saline with Tween-80): 91 % of control
T/C (dose: 50.0 mg/kg/injection, schedule: Q04DX003 (ip), vehicle: saline with Tween-80): 93 % of control
T/C [7]: 93 % of control

CCCCCC[As](=O)(O)CCCCCC
T/C (dose: 50.0 mg/kg/injection, schedule: Q01DX001 (ip), vehicle: saline): 103 % of control

CCOC(=O)c1c(Cl)nc2ccccc2c1Cl
T/C [18]: 92 % of control
T/C (dose: 200.0 mg/kg/injection, schedule: Q01DX001 (ip), vehicle: saline): 97 % of control
T/C (dose: 400.0 mg/kg/injection, schedule: Q01DX001 (ip), vehicle: saline): 94 % of control

Cc1ccc2nc(C)ccc2c1
T/C (dose: 50.0 mg/kg/injection, schedule: Q01DX001 (ip), vehicle: Klucel (hydroxypropylcellulose) (HPC)): 101 % of control
T/C [14]: 109 % of control
T/C [15]: 107 % of control

O=[As](O)(O)c1ccc(OCCO)cc1
T/C (dose: 100.0 mg/kg/injection, schedule: Q01DX009 (ip), vehicle: saline): 96 % of control
T/C (dose: 200.0 mg/kg/injection, schedule: Q01DX009 (ip), vehicle: saline): 96 % of control

CC(=O)C(C(C)=O)C(=O)c1ccc2ccccc2c1
T/C (dose: 222.0 mg/kg/injection, schedule: Q01DX Z (ip), vehicle: methylcellulose (MC)): 107 % of control
T/C (dose: 333.0 mg/kg/injection, schedule: Q01DX Z (ip), vehicle: methylcellulose (MC)): 94 % of control
T/C (dose: 500.0 mg/kg/injection, schedule: Q01DX Z (ip), vehicle: methylcellulose (MC)): 96 % of control

CCCC(CCC)CCCCC(CCC)CCC
T/C [12]: 96 % of control
T/C [13]: 96 % of control
T/C (dose: 300.0 mg/kg/injection, schedule: Q01DX001 (ip), vehicle: saline): 94 % of control

O=C(N/N=C/c1cccc([N+](=O)[O-])c1)c1ccc(O)cc1
T/C [10]: 102 % of control
T/C [11]: 105 % of control

CC/C(C)=N/C(=O)NN
T/C (dose: 100.0 mg/kg/injection, schedule: Q01DX001 (ip), vehicle: saline with Tween-80): 103 % of control

CC(C)(C)NN
T/C (dose: 5.0 mg/kg/injection, schedule: Q01DX001 (ip), vehicle: saline): 102 % of control
T/C (dose: 10.0 mg/kg/injection, schedule: Q01DX001 (ip), vehicle: saline): 104 % of control
T/C (dose: 20.0 mg/kg/injection, schedule: Q01DX001 (ip), vehicle: saline): 98 % of control
T/C (dose: 40.0 mg/kg/injection, schedule: Q01DX001 (ip), vehicle: saline): 94 % of control
T/C (dose: 80.0 mg/kg/injection, schedule: Q01DX001 (ip), vehicle: saline): 96 % of control
T/C [18]: 101 % of control

O=c1c2cccc3cccc(c32)c2nc3ccccc3n12
T/C (dose: 6.25 mg/kg/injection, schedule: Q01DX009 (ip), vehicle: saline with Tween-80): 120 % of control
T/C [16]: 116 % of control
T/C [17]: 100 % of control
T/C [7]: 104 % of control
T/C [8]: 103 % of control

CCOC(=O)C12CCCCC1=CC1(CC2)SCCS1 (stereo not given)
T/C (dose: 100.0 mg/kg/injection, schedule: Q01DX009 (ip), vehicle: acetone): 88 % of control
T/C (dose: 200.0 mg/kg/injection, schedule: Q01DX009 (ip), vehicle: acetone): 91 % of control
T/C (dose: 400.0 mg/kg/injection, schedule: Q01DX009 (ip), vehicle: acetone): 246 % of control

CCCCOP(=O)(Cc1ccccc1)Oc1ccccc1 (stereo not given)
T/C [4]: 95 % of control
T/C [5]: 97 % of control
T/C [6]: 105 % of control
